Common to all, as to assay: CDK Kinase Inhibition Assay
For assay [1], the target named is Cyclin-dependent kinase 2/G1/S-specific cyclin-E1 (Homo sapiens, UniProt P24941). On the procedure:
(§1) In vitro CDK assay using purified enzyme, was incubated at room temperature with substrate, and test compounds in the presence of ATP/[gamma-33P]ATP. 33P incorporation was measured with a Top Count (Packard). IC50 is the inhibitor concentration which inhibits 50% of kinase activity that catalyzes the transfer of the terminal phosphate from 33P labeled ATP to the substrate.

The target of assay [2] is Cyclin-dependent kinase 4/G1/S-specific cyclin-D1 (Homo sapiens, UniProt P11802). As to conditions: 25 °C. The method, then: as §1
In assay [3] the target is Cyclin-dependent kinase/G2/mitotic-specific cyclin- 1 (Homo sapiens, UniProt P06493). The settings on record: 25 °C. The method, then: as §1

pIC50: −log10 of the molar value.

Chain of Cyclin-dependent kinase/G2/mitotic-specific cyclin- 1 (P06493 whole entry): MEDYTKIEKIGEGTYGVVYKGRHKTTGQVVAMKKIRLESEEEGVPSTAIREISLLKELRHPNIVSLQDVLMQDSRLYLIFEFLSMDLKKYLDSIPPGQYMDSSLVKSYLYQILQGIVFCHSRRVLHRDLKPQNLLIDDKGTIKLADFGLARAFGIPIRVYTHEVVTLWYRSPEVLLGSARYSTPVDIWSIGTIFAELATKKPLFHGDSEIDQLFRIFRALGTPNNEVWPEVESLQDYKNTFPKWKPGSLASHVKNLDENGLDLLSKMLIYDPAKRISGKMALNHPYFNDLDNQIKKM
Chain of Cyclin-dependent kinase/G2/mitotic-specific cyclin- 1 (P14635 whole entry, further chain): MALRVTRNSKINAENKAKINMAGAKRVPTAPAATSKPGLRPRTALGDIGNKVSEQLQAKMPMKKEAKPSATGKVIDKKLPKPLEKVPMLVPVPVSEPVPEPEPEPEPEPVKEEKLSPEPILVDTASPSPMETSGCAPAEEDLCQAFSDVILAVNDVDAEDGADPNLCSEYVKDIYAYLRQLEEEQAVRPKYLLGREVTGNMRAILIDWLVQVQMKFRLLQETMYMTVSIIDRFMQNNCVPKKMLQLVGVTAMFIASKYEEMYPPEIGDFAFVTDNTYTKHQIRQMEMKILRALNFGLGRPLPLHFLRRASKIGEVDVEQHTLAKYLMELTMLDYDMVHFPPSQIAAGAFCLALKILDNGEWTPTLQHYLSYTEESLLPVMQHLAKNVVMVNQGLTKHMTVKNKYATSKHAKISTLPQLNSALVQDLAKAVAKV
Chain of Cyclin-dependent kinase 4/G1/S-specific cyclin-D1 (P11802 whole entry): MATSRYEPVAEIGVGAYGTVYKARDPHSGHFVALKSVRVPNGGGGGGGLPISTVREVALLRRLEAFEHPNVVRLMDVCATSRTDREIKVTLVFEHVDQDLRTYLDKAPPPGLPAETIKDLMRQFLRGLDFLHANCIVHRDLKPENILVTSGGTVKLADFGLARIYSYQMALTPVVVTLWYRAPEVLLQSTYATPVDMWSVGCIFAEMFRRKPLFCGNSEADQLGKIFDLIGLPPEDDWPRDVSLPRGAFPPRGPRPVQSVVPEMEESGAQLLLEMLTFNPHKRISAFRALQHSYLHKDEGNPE
Chain of Cyclin-dependent kinase 4/G1/S-specific cyclin-D1 (P24385 whole entry, further chain): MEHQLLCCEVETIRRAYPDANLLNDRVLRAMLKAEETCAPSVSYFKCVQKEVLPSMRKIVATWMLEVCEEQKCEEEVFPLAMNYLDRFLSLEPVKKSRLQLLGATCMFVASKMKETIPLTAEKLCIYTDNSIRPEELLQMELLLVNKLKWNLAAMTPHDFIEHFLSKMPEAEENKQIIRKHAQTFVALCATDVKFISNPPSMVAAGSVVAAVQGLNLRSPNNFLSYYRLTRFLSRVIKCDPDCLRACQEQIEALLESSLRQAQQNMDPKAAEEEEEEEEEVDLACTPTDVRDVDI

`CCN(CC)CCOc1cc(F)c(C(=O)c2c(N)nc3ccc(C(=O)c4c(Cl)cccc4Cl)cn23)c(F)c1` [6-[(2,6-dichlorophenyl)carbonyl]-3-({4-[2-(diethylamino)ethoxy]-2,6-difluorophenyl}carbonyl)imidazo[1,2-a]pyridin-2-amine]: the pIC50 (usually the negative decadic logarithm of the IC50, by convention in mol/L) in assay [1] (25 °C) is 6.01. Still for that read-out and setting: to `N#C/C=C(/c1ccc2nc(N)c(C(=O)c3c(F)cccc3F)n2c1)c1c(F)cccc1F` [(2Z)-3-{2-amino-3-[(2,6-difluorophenyl)carbonyl]imidazo[1,2-a]pyridin-6-yl}-3-(2,6-difluorophenyl)prop-2-enenitrile] belongs 6.05. `N#C/C=C(\c1ccc2nc(N)c(C(=O)c3c(F)cccc3F)n2c1)c1c(F)cccc1F` [(2E)-3-{2-amino-3-[(2,6-difluorophenyl)carbonyl]imidazo[1,2-a]pyridin-6-yl}-3-(2,6-difluorophenyl)prop-2-enenitrile]: the pIC50 is 6.80 in assay [1] (pH 7, 22 °C); 5.81 in assay [2]; 7.28 in assay [3].

The values are drawn from BindingDB's records for doi:10.1016/j.bmcl.2004.09.053 (Avenida De La Industria, 2004).
